We go through 9 compounds from BindingDB's records for PubMed 8863814 (Cyenamid Agricultural Research Center, 1996).

For experiment [1], the target named is T1, Somatostatin receptor type 5 (Rattus norvegicus, UniProt P30938).
T1 sequence (P30938 whole entry): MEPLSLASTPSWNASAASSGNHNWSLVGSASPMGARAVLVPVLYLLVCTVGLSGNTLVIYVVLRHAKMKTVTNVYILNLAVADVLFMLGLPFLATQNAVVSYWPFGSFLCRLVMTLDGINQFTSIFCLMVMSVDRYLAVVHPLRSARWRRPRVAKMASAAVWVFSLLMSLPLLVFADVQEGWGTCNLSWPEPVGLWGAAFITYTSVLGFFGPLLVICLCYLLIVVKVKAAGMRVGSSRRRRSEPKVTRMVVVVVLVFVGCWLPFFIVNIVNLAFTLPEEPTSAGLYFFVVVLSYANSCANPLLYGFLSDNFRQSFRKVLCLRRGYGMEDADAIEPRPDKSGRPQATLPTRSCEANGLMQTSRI

The target in experiment [2] is Somatostatin receptor type 2 (Rattus norvegicus, UniProt P30680).
The target of experiment [3] is Somatostatin receptor type 3 (Rattus norvegicus, UniProt P30936).
Experiment [4] addresses Somatostatin receptor type 1 (Rattus norvegicus, UniProt P28646).

As a reminder, the Ki is a dissociation constant, usually derived from enzyme kinetics or from competition with a known ligand. Higher therefore signals a looser hold on the target.

Values joined by “and” are separate entries in the source; they are usually repeats but may differ in a detail not shown here. Equal values may be shown once.

Chain of Somatostatin receptor type 2 (P30680 whole entry): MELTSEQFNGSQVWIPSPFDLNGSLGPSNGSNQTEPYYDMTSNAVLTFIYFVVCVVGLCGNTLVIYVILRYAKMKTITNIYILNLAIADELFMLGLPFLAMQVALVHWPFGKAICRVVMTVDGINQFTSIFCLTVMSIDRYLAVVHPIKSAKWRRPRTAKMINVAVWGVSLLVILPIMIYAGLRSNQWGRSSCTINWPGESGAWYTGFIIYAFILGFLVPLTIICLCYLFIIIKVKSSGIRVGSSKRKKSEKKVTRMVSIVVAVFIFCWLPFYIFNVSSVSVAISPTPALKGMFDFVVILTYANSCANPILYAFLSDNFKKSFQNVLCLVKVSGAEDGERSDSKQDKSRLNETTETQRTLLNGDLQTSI
Chain of Somatostatin receptor type 1 (P28646 whole entry): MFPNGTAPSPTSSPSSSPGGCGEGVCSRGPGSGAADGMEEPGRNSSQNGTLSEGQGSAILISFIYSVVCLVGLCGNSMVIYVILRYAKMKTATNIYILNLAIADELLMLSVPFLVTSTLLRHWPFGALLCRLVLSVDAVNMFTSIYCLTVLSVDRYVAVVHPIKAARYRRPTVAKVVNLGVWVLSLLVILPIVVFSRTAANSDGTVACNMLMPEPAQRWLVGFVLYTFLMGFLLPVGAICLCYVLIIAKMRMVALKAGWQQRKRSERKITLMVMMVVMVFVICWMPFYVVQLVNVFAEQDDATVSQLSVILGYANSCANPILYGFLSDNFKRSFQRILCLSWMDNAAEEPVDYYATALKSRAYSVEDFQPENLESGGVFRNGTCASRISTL
Chain of Somatostatin receptor type 3 (P30936 whole entry): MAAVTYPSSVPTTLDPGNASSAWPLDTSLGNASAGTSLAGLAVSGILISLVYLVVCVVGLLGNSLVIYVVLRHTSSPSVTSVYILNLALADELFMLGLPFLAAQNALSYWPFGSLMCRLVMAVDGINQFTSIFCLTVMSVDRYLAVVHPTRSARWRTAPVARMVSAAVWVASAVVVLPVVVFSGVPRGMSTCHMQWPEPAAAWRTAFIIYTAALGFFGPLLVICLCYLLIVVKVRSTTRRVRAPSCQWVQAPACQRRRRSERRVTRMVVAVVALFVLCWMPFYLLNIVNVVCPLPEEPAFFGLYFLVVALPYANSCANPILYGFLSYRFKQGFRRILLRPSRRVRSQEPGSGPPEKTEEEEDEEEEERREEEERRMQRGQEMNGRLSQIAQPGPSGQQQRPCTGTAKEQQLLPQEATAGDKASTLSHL

In turn, `C[C@H](N)C(=O)NCC(=O)N[C@@H]1CSSC[C@@H](C(=O)O)NC(=O)[C@H](CO)NC(=O)[C@@H]([C@@H](C)O)NC(=O)[C@H](Cc2ccccc2)NC(=O)[C@@H]([C@@H](C)O)NC(=O)[C@H](CCCCN)NC(=O)[C@@H](Cc2c[nH]c3ccccc23)NC(=O)[C@H](Cc2ccccc2)NC(=O)[C@@H](Cc2ccccc2)NC(=O)[C@H](CC(N)=O)NC(=O)[C@@H](CCCCN)NC1=O` had a Ki in experiment [1] of 5 nM.

On to `CC(=O)N[C@@H](Cc1ccc([N+](=O)[O-])cc1)C(=O)N[C@H]1CSSC[C@@H](C(=O)N[C@@H](Cc2ccc(O)cc2)C(N)=O)NC(=O)[C@H]([C@@H](C)O)NC(=O)[C@H](CCCCN)NC(=O)[C@@H](Cc2c[nH]c3ccccc23)NC(=O)[C@H](Cc2ccc(O)cc2)NC1=O` [AcNH-4-NO2-Phe-c[Cys-Tyr-D-Trp-Lys-Thr-Cys]-Tyr-NH2], for which the values for the Ki in experiment [2] and in experiment [3] were 0.1 nM and 1000 nM, respectively.

Regarding `CC(=O)N[C@H](Cc1ccc([N+](=O)[O-])cc1)C(=O)N[C@H]1CSSC[C@H](C(=O)N[C@@H](C(N)=O)[C@H](C)O)NC(=O)[C@@H](C(C)C)NC(=O)[C@H](CCCCN)NC(=O)[C@@H](Cc2c[nH]c3ccccc23)NC(=O)[C@H](Cc2ccc(O)cc2)NC1=O` [AcNH-4-NO2-Phe-c[Cys-Tyr-D-Trp-Lys-Thr-Cys]-Tyr-NH2], the inhibitory constant (Ki) in experiment [1] was found to be 2.2 nM.

Take `CC(=O)N[C@@H](Cc1ccc([N+](=O)[O-])cc1)C(=O)N[C@@H]1CSSC[C@@H](C(=O)N[C@@H](Cc2ccc(O)cc2)C(N)=O)NC(=O)[C@H]([C@@H](C)O)NC(=O)[C@H](CCCCN)NC(=O)[C@@H](Cc2c[nH]c3ccccc23)NC(=O)[C@H](Cc2ccc(O)cc2)NC1=O` [AcNH-4-NO2-Phe-c[D-Cys-Tyr-D-Trp-Lys-Thr-Cys]-Tyr-NH2]: the inhibitory constant (Ki) turned out to be 1000 nM in experiment [4], 0.3 nM in experiment [2] and 100 nM in experiment [3].

In experiment [1], `CC(=O)N[C@H](Cc1ccc([N+](=O)[O-])cc1)C(=O)N[C@@H]1CSSC[C@H](C(=O)N[C@@H](C(N)=O)[C@H](C)O)NC(=O)[C@@H](C(C)C)NC(=O)[C@H](CCCCN)NC(=O)[C@@H](Cc2c[nH]c3ccccc23)NC(=O)[C@H](Cc2ccc(O)cc2)NC1=O` [AcNH-4-NO2-Phe-c[D-Cys-Tyr-D-Trp-Lys-Thr-Cys]-Tyr-NH2] showed a Ki of 2.5 nM.

`CC(C)[C@@H]1NC(=O)[C@H](CCCCN)NC(=O)[C@@H](Cc2c[nH]c3ccccc23)NC(=O)[C@H](Cc2ccc(O)cc2)NC(=O)[C@@H](NC(=O)[C@@H](N)Cc2ccc([N+](=O)[O-])cc2)CSSC[C@@H](C(=O)N[C@@H](Cc2ccc(O)cc2)C(N)=O)NC1=O` [H2N-4-NO2-Phe-c[Cys-Tyr-D-Trp-Lys-Val-Cys]-Tyr-Nh2]: the Ki in experiment [4] was found to be 1000 nM; in experiment [2] it was 0.2 nM; in experiment [3], 300 nM.

In the case of `CC(C)[C@H]1NC(=O)[C@H](CCCCN)NC(=O)[C@@H](Cc2c[nH]c3ccccc23)NC(=O)[C@H](Cc2ccc(O)cc2)NC(=O)[C@@H](NC(=O)[C@@H](N)Cc2ccc([N+](=O)[O-])cc2)CSSC[C@H](C(=O)N[C@@H](C(N)=O)[C@H](C)O)NC1=O` [H2N-4-NO2-Phe-c[Cys-Tyr-D-Trp-Lys-Val-Cys]-Tyr-Nh2], the Ki in experiment [1] was 0.1 nM and 0.42 nM.

For the compound `CC(C)[C@@H]1NC(=O)[C@H](CCCCN)NC(=O)[C@@H](Cc2c[nH]c3ccccc23)NC(=O)[C@H](Cc2ccc(O)cc2)NC(=O)[C@H](NC(=O)[C@@H](N)Cc2ccc([N+](=O)[O-])cc2)CSSC[C@@H](C(=O)N[C@@H](Cc2ccc(O)cc2)C(N)=O)NC1=O` [H2N-4-NO2-Phe-c[D-Cys-Tyr-D-Trp-Lys-Val-Cys]-Tyr-Nh2], the inhibitory constant (Ki) was found to be 1000 nM in experiment [4], 12.9 nM in experiment [2] and 1000 nM in experiment [3].

For the compound `CC(C)[C@H]1NC(=O)[C@H](CCCCN)NC(=O)[C@@H](Cc2c[nH]c3ccccc23)NC(=O)[C@H](Cc2ccc(O)cc2)NC(=O)[C@H](NC(=O)[C@@H](N)Cc2ccc([N+](=O)[O-])cc2)CSSC[C@H](C(=O)N[C@@H](C(N)=O)[C@H](C)O)NC1=O` [H2N-4-NO2-Phe-c[D-Cys-Tyr-D-Trp-Lys-Val-Cys]-Tyr-Nh2], in experiment [1], the affinity corresponds to a Ki of 18.1 nM.
